Measurements: patent US7491819B1 (priority 2004, dated 2009)

molecular target: T1, HIV-integrase (Human immunodeficiency virus type 1 group M subtype B, UniProt P12497); experiment: HIV-Integrase Inhibition Activity (SPA bead strand-transfer assay); format: biochemical; settings: Table 1; read-out: Activity (HIV-integrase inhibition, IC50 class)
T1 construct: Recombinant integrase (0.26 ng) was incubated with the beads
In short: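 Strand-transfer read-out: CPM from P33-labelled target DNA (0.1 fmol) joined to bead-bound biotin substrate DNA (5 pmole), with EDTA stop at 10 mM final. Integrase (0.26 ng) prebound to streptavidin SPA beads 90 min, 37° C, and washed before adding inhibitor.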

| Compound | IC50 [nM] |
| --- | --- |
| Cc1cc(-c2cc(F)ccc2CNC(=O)c2nc3n(c(=O)c2O)CCOC3(C)C)on1 [Example 210, Pyrimido[2,1-c][1,4]oxazine-2-carboxamide, N-[[4-fluoro-2-(3-methyl-5-isoxazolyl)phenyl]methyl]-4,6,7,9-tetrahydro-3-hydroxy-9,9-dimethyl-4-oxo-] | 2 to 100 |
| CC1(C)OCCn2c1nc(C(=O)NCc1cccc3c1OCCO3)c(O)c2=O [Example 267, Pyrimido[2,1-c][1,4]oxazine-2-carboxamide, N-[(2,3-dihydro-1,4-benzodioxin-5-yl)methyl]-4,6,7,9-tetrahydro-3-hydroxy-9,9-dimethyl-4-oxo-] | 2 to 100 |
| CC1(C)OCCn2c1nc(C(=O)NCc1cccc3c1S(=O)(=O)CC3)c(O)c2=O [Example 140, Pyrimido[2,1-c][1,4]oxazine-2-carboxamide, N-[(2,3-dihydro-1,1-dioxidobenzo[b]thien-7-yl)methyl]-4,6,7,9-tetrahydro-3-hydroxy-9,9-dimethyl-4-oxo-] | 2 to 100 |
| CC1(C)OCCn2c1nc(C(=O)NCc1ccccc1-c1ccncc1)c(O)c2=O [Example 190, Pyrimido[2,1-c][1,4]oxazine-2-carboxamide, 4,6,7,9-tetrahydro-3-hydroxy-9,9-dimethyl-4-oxo-N-[[2-(4-pyridinyl)phenyl]methyl]-] | 2 to 100 |
| CN1CCN(C(=O)c2ccc(-c3ccccc3CNC(=O)c3nc4n(c(=O)c3O)CCOC4(C)C)cc2)CC1 [Example 196, Pyrimido[2,1-c][1,4]oxazine-2-carboxamide, 4,6,7,9-tetrahydro-3-hydroxy-9,9-dimethyl-N-[[4′-[(4-methyl-1-piperazinyl)carbonyl][1,1′-biphenyl]-2-yl]methyl]-4-oxo-] | 2 to 100 |
| COc1ccc(OC)c(CNC(=O)c2nc3n(c(=O)c2O)CCOC3(C)C)c1 [Example 235, Pyrimido[2,1-c][1,4]oxazine-2-carboxamide, N-[(2,5-dimethoxyphenyl)methyl]-4,6,7,9-tetrahydro-3-hydroxy-9,9-dimethyl-4-oxo-] | 2 to 100 |
| CC(=O)Nc1cc(F)ccc1CNC(=O)c1nc2n(c(=O)c1O)CCOC2(C)C [Example 135, Pyrimido[2,1-c][1,4]oxazine-2-carboxamide, N-[[2-(acetylamino)-4-fluorophenyl]methyl]-4,6,7,9-tetrahydro-3-hydroxy-9,9-dimethyl-4-oxo-] | 2 to 100 |
| CC1(C)OCCn2c1nc(C(=O)NCc1ccc(F)cc1C(=O)O)c(O)c2=O [Example 48, Benzoic acid, 5-fluoro-2-[[[(4,6,7,9-tetrahydro-3-hydroxy-9,9-dimethyl-4-oxopyrimido[2,1-c][1,4]oxazin-2-yl)carbonyl]amino]methyl]-] | 2 to 100 |
| CC1(C)OCCn2c1nc(C(=O)NCc1cccc(F)c1-n1cncn1)c(O)c2=O [Example 56, Pyrimido[2,1-c][1,4]oxazine-2-carboxamide, N-[[3-fluoro-2-(1H-1,2,4-triazol-1-yl)phenyl]methyl]-4,6,7,9-tetrahydro-3-hydroxy-9,9-dimethyl-4-oxo-] | 2 to 100 |
| CC1(C)OCCn2c1nc(C(=O)NCc1ccc(Cl)cc1)c(O)c2=O [Example 34, Pyrimido[2,1-c][1,4]oxazine-2-carboxamide, N-[(4-chlorophenyl)methyl]-4,6,7,9-tetrahydro-3-hydroxy-9,9-dimethyl-4-oxo-] | 2 to 100 |
| CC1(C)OCCn2c1nc(C(=O)NCc1cccc3c1NC(=O)C3)c(O)c2=O [Example 94] | 2 to 100 |
| CN(C)c1ccc(CNC(=O)c2nc3n(c(=O)c2O)CCOC3(C)C)cc1 [Example 257, Pyrimido[2,1-c][1,4]oxazine-2-carboxamide, N-[[4-(dimethylamino)phenyl]methyl]-4,6,7,9-tetrahydro-3-hydroxy-9,9-dimethyl-4-oxo-] | 2 to 100 |
| CC1(C)OCCn2c1nc(C(=O)NCc1cc(Cl)ccc1Cl)c(O)c2=O [Example 228, Pyrimido[2,1-c][1,4]oxazine-2-carboxamide, N-[(2,5-dichlorophenyl)methyl]-4,6,7,9-tetrahydro-3-hydroxy-9,9-dimethyl-4-oxo-] | 2 to 100 |
| CN1CCN(c2cc(-c3ccccc3CNC(=O)c3nc4n(c(=O)c3O)CCOC4(C)C)ccn2)CC1 [Example 159, Pyrimido[2,1-c][1,4]oxazine-2-carboxamide, 4,6,7,9-tetrahydro-3-hydroxy-9,9-dimethyl-N-[[2-[2-(4-methyl-1-piperazinyl)-4-pyridinyl]phenyl]methyl]-4-oxo-] | 100 to 1000 |
| CC1(C)OCCn2c1nc(C(=O)NCc1cc(Br)c(F)cc1Br)c(O)c2=O [Example 201, Pyrimido[2,1-c][1,4]oxazine-2-carboxamide, N-[(4-fluoro-2,5-dibromophenyl)methyl]-4,6,7,9-tetrahydro-3-hydroxy-9,9-dimethyl-4-oxo] | 2 to 100 |
| CC1(C)OCCn2c1nc(C(=O)NCc1ccc(F)cc1-c1cccnc1)c(O)c2=O [Example 75, Pyrimido[2,1-c][1,4]oxazine-2-carboxamide, N-[[4-fluoro-2-(3-pyridinyl)phenyl]methyl]-4,6,7,9-tetrahydro-3-hydroxy-9,9-dimethyl-4-oxo-] | 2 to 100 |
| CCOc1ccccc1CNC(=O)c1nc2n(c(=O)c1O)CCOC2(C)C [Example 243, Pyrimido[2,1-c][1,4]oxazine-2-carboxamide, N-[(2-ethoxyphenyl)methyl]-4,6,7,9-tetrahydro-3-hydroxy-9,9-dimethyl-4-oxo-] | 2 to 100 |
| COc1cccc(CNC(=O)c2nc3n(c(=O)c2O)CCOC3(C)C)c1OC [Example 229, Pyrimido[2,1-c][1,4]oxazine-2-carboxamide, N-[(2,3-dimethoxyphenyl)methyl]-4,6,7,9-tetrahydro-3-hydroxy-9,9-dimethyl-4-oxo-] | 2 to 100 |
| CC1(C)OCCn2c1nc(C(=O)NCc1ccc(F)cc1N1C(=O)CC[C@@H]1CN)c(O)c2=O [Example 133, (R)—N-(2-(2-(Aminomethyl)-5-oxopyrrolidin-1-yl)-4-fluorobenzyl)-3-hydroxy-9,9-dimethyl-4-oxo-4,6,7,9-tetrahydropyrimido[2,1-c][1,4]oxazine-2-carboxamide] | 100 to 1000 |
| COc1ncc(-c2ccccc2CNC(=O)c2nc3n(c(=O)c2O)CCOC3(C)C)cc1Cl [Example 193, Pyrimido[2,1-c][1,4]oxazine-2-carboxamide, N-[[2-(5-chloro-6-methoxy-3-pyridinyl)phenyl]methyl]-4,6,7,9-tetrahydro-3-hydroxy-9,9-dimethyl-4-oxo-] | 2 to 100 |
| Cc1ccc(CNC(=O)c2nc3n(c(=O)c2O)CCOC3(C)C)cc1C [Example 31, Pyrimido[2,1-c][1,4]oxazine-2-carboxamide, N-[(3,4-dimethylphenyl)methyl]-4,6,7,9-tetrahydro-3-hydroxy-9,9-dimethyl-4-oxo-] | 2 to 100 |
| CC1(C)OCCn2c1nc(C(=O)NCc1ccc(Cl)c(Cl)c1)c(O)c2=O [Example 221, Pyrimido[2,1-c][1,4]oxazine-2-carboxamide, N-[(3,4-dichlorophenyl)methyl]-4,6,7,9-tetrahydro-3-hydroxy-9,9-dimethyl-4-oxo-] | 2 to 100 |
| CC1(C)OCCn2c1nc(C(=O)NCc1ccc(F)cc1C#CCN1CCCCS1(=O)=O)c(O)c2=O [Example 93, Pyrimido[2,1-c][1,4]oxazine-2-carboxamide, N-[[4-fluoro-2-[3-(tetrahydro-1,1-dioxido-2H-1,2-thiazin-2-yl)-1-propynyl]phenyl]methyl]-4,6,7,9-tetrahydro-3-hydroxy-9,9-dimethyl-4-oxo-] | 2 to 100 |
| CC1(C)OCCn2c1nc(C(=O)NCc1cccc(C3(C(F)(F)F)N=N3)c1)c(O)c2=O [Example 105, Pyrimido[2,1-c][1,4]oxazine-2-carboxamide, 4,6,7,9-tetrahydro-3-hydroxy-9,9-dimethyl-4-oxo-N-[[3-[3-(trifluoromethyl)-3H-diazirin-3-yl]-phenyl]methyl]-] | 2 to 100 |
| CC1(C)OCCn2c1nc(C(=O)NCc1ccc(F)cc1N1C(=O)CC[C@@H]1CO)c(O)c2=O [Example 128, Pyrimido[2,1-c][1,4]oxazine-2-carboxamide, N-[[4-fluoro-2-[(2R)-2-(hydroxymethyl)-5-oxo-1-pyrrolidinyl]phenyl]methyl]-4,6,7,9-tetrahydro-3-hydroxy-9,9-dimethyl-4-oxo-] | 2 to 100 |
| Cc1ccc(CNC(=O)c2nc3n(c(=O)c2O)CCOC3(C)C)cc1 [Example 240, Pyrimido[2,1-c][1,4]oxazine-2-carboxamide, 4,6,7,9-tetrahydro-3-hydroxy-9,9-dimethyl-N-[(4-methylphenyl)methyl]-4-oxo-] | 2 to 100 |
| CC1(C)OCCn2c1nc(C(=O)NCc1ccccc1-c1ccsc1)c(O)c2=O [Example 179, Pyrimido[2,1-c][1,4]oxazine-2-carboxamide, 4,6,7,9-tetrahydro-3-hydroxy-9,9-dimethyl-4-oxo-N-[[2-(3-thienyl)phenyl]methyl]-] | 2 to 100 |
| Cc1cc(C)cc(CNC(=O)c2nc3n(c(=O)c2O)CCOC3(C)C)c1 [Example 38, Pyrimido[2,1-c][1,4]oxazine-2-carboxamide, N-[(3,5-dimethylphenyl)methyl]-4,6,7,9-tetrahydro-3-hydroxy-9,9-dimethyl-4-oxo-] | 2 to 100 |
| CC1(C)OCCn2c1nc(C(=O)NCc1ccc(F)cc1C(=O)NC1CC1)c(O)c2=O [Example 50, Pyrimido[2,1-c][1,4]oxazine-2-carboxamide, N-[[2-[(cyclopropylamino)carbonyl]-4-fluorophenyl]methyl]-4,6,7,9-tetrahydro-3-hydroxy-9,9-dimethyl-4-oxo-] | 2 to 100 |

same assay, conditions: Table 2a; read-out: HIV-Integrase Inhibition Activity

| Compound | IC50 [nM] |
| --- | --- |
| CC1(C)OCCn2c1nc(C(=O)NCc1ccc(F)cc1SCCO)c(O)c2=O [Example 313, Pyrimido[2,1-c][1,4]oxazine-2-carboxamide, N-[[4-fluoro-2-[(2-hydroxyethyl)thio]phenyl]methyl]-4,6,7,9-tetrahydro-3-hydroxy-9,9-dimethyl-4-oxo-] | 2 to 100 |
